This passage reports IC50 results from ChEMBL document CHEMBL3108686, “Cytotoxic dammarane-type triterpenoids from the stem bark of Dysoxylum binecteriferum” (J Nat Prod, 2014).

For experiment [1], the system named is HepG2. Description: Cytotoxicity against human HepG2 cells assessed as cell viability after 48 hrs by MTT assay. The class given is functional, cell-based. To be noted: HepG2, 48 h.
For experiment [2], the system named is RAW264.7. Description: Antiinflammatory activity in mouse RAW264.7 cells assessed as inhibition of LPS-stimulated nitric oxide production after 24 hrs by Griess assay. The class given is functional, cell-based. To be noted: RAW264.7, 24 h. (The Griess reaction detects nitrite, a stable product of nitric oxide.)
Experiment [3] has as its system A549. Description: cells. The conditions noted are these: Homo sapiens, A549, 48 h.
Description: Cytotoxicity against human A549 cells assessed as cell viability after 48 hrs by MTT assay
Experiment [4] deals with MCF7. Description: Cytotoxicity against human MCF7 cells assessed as cell viability after 48 hrs by MTT assay. The class given is functional, cell-based. The conditions noted are these: MCF7, 48 h. Background: Formazan colour is commonly taken as a measure of viable cells.

One may read the IC50 as the concentration that inhibits the measured activity by half. In the case of `C=C(CC[C@H](O)C(C)(C)O)[C@H]1CC[C@]2(C)[C@@H]1CC[C@@H]1[C@@]3(C)CC[C@@H](O)C(C)(C)[C@@H]3CC[C@]12C`, the half-inhibitory concentration (IC50) in experiment [1] is 5.9 µM; in experiment [2] it was above 100 µM; in experiment [3], 35 µM; in experiment [4], 16.7 µM.

`C=C(C)[C@@H]1CC[C@]2(C)[C@H](CC[C@@H]3[C@@H]([C@]4(C)CC[C@@H](C(C)(C)O)O4)CC[C@]32C)[C@@]1(C)CCC(=O)OC`: the concentration for half-maximal inhibition (IC50) was above 50 µM in experiment [1], above 100 µM in experiment [2], above 50 µM in experiment [3] and above 50 µM in experiment [4].

On to `C=C(C)[C@@H]1CC[C@]2(C)[C@H](CC[C@@H]3[C@@H]([C@]4(C)CC[C@H](C(C)(C)O)O4)CC[C@]32C)[C@@]1(C)CCC(=O)OCC`, for which the IC50 was 14.9 µM in experiment [1], above 100 µM in experiment [2], 12.9 µM in experiment [3] and 18.4 µM in experiment [4].

On to `C=C(C)[C@@H]1CC[C@]2(C)[C@H](CC[C@@H]3[C@@H]([C@]4(C)CCC(=O)O4)CC[C@]32C)[C@@]1(C)CCC(=O)OCC`, for which the half-inhibitory concentration (IC50) is 38.4 µM in experiment [1], above 100 µM in experiment [2], above 50 µM in experiment [3] and above 50 µM in experiment [4].

As to `C=C(C)[C@@H]1CC[C@]2(C)[C@H](CC[C@@H]3[C@@H]([C@]4(C)CCC(=O)O4)CC[C@]32C)[C@@]1(C)CCC(=O)OC`, the IC50 was above 50 µM in experiment [1], 31.8 µM in experiment [2], above 50 µM in experiment [3] and above 50 µM in experiment [4].

Turning to `C=C(C)[C@@H]1CC[C@]2(C)[C@H](CC[C@@H]3[C@@H]([C@]4(C)CCC(=O)O4)CC[C@]32C)[C@@]1(C)CCC(=O)O`, the IC50 in experiment [1] was above 50 µM; in experiment [2], above 100 µM; in experiment [3], above 50 µM; in experiment [4], above 50 µM.

As to `CC(C)(O)[C@@H]1CC[C@@](C)([C@H]2CC[C@]3(C)[C@@H]2CC[C@@H]2[C@@]4(C)CC[C@@H](O)C(C)(C)[C@@H]4CC[C@]23C)O1`, the IC50 in experiment [1] is above 50 µM; in experiment [2], above 100 µM; in experiment [3] it was above 50 µM; in experiment [4] it was above 50 µM.

Consider `CC(C)(O)[C@@H]1CC[C@@](C)([C@H]2CC[C@]3(C)[C@@H]2CC[C@@H]2[C@@]4(C)CC[C@@H](O)[C@@](C)(CO)[C@@H]4CC[C@]23C)O1`, for which the IC50 is 20.2 µM in experiment [1], 64.9 µM in experiment [2], above 50 µM in experiment [3] and 30.4 µM in experiment [4].

With `CC(C)(O)[C@H]1CC[C@@](C)([C@H]2CC[C@]3(C)[C@@H]2CC[C@@H]2[C@@]4(C)CC[C@@H](O)[C@@](C)(CO)[C@@H]4CC[C@]23C)O1`, the IC50 was above 50 µM in experiment [1], above 100 µM in experiment [2], above 50 µM in experiment [3] and 23 µM in experiment [4].

Turning to `CC(C)(O)[C@H]1CC[C@@](C)([C@H]2CC[C@]3(C)[C@@H]2CC[C@@H]2[C@@]4(C)CCC(=O)[C@@](C)(CO)[C@@H]4CC[C@]23C)O1`, the IC50 is above 50 µM in experiment [1], above 100 µM in experiment [2], above 50 µM in experiment [3] and above 50 µM in experiment [4].

Regarding `CC(C)(O)[C@@H]1CC[C@@](C)([C@H]2CC[C@]3(C)[C@@H]2CC[C@@H]2[C@@]4(C)CCC(=O)[C@@](C)(CO)[C@@H]4CC[C@]23C)O1`, the concentration for half-maximal inhibition (IC50) in experiment [1] is 6.5 µM; in experiment [2] it was above 100 µM; in experiment [3] it was 28.2 µM; in experiment [4] it was 18.3 µM.

For the molecule `CC(C)(O)[C@@H]1CC[C@@](C)([C@H]2CC[C@]3(C)[C@@H]2CC[C@@H]2[C@@]4(C)CCC(=O)[C@](C)(CO)[C@@H]4CC[C@]23C)O1`, the 50% inhibitory concentration (IC50) in experiment [1] was above 50 µM; in experiment [2], above 100 µM; in experiment [3], above 50 µM; in experiment [4], above 50 µM.

Regarding `CC(C)(O)[C@@H]1CC[C@@](C)([C@H]2CC[C@]3(C)[C@@H]2CC[C@@H]2[C@@]4(C)CCC(=O)C(C)(C)[C@@H]4C[C@H](O)[C@]23C)O1`, the 50% inhibitory concentration (IC50) in experiment [1] is above 50 µM; in experiment [2] it was above 100 µM; in experiment [3] it was above 50 µM; in experiment [4], above 50 µM.

Regarding `CC1(C)[C@H](O)CC[C@]2(C)[C@H]3CC[C@@H]4[C@@H]([C@]5(C)C=CC(=O)O5)CC[C@@]4(C)[C@]3(C)CC[C@@H]12`, the half-maximal inhibitory concentration (IC50) is above 50 µM in experiment [1], above 100 µM in experiment [2], above 50 µM in experiment [3] and above 50 µM in experiment [4].

Take `CC1(C)C(=O)CC[C@]2(C)[C@H]3CC[C@@H]4[C@@H]([C@]5(C)C[C@H](O)C(=O)O5)CC[C@@]4(C)[C@]3(C)CC[C@@H]12`: the IC50 was 8 µM in experiment [1], above 100 µM in experiment [2], 12.4 µM in experiment [3] and 26.7 µM in experiment [4].

Consider `C=C(CO)[C@@H]1CC[C@]2(C)[C@H](CC[C@@H]3[C@@H]([C@]4(C)CC[C@@H](C(C)(C)O)O4)CC[C@]32C)[C@@]1(C)CCC(=O)OC`, for which the IC50 in experiment [1] was 28 µM; in experiment [2], above 100 µM; in experiment [3], above 50 µM; in experiment [4] it was above 50 µM.

With `C=C(C)[C@@H]1CC[C@]2(C)[C@H](CC[C@@H]3[C@@H]([C@]4(C)CC[C@H](O)C(C)(C)O4)CC[C@]32C)[C@@]1(C)CCC(=O)OC`, the 50% inhibitory concentration (IC50) in experiment [1] is above 50 µM; in experiment [2], above 100 µM; in experiment [3], above 50 µM; in experiment [4] it was above 50 µM.

For the molecule `CCOC(=O)CC[C@@]1(C)[C@H]([C@@](C)(O)CO)CC[C@]2(C)[C@@H]1CC[C@@H]1[C@@H]([C@]3(C)CC[C@H](C(C)(C)O)O3)CC[C@]12C`, the IC50 in experiment [1] was above 50 µM; in experiment [2] it was 57.7 µM; in experiment [3], above 50 µM; in experiment [4], above 50 µM.

Regarding `CCOC(=O)CC[C@@]1(C)[C@H]([C@@](C)(O)CO)CC[C@]2(C)[C@@H]1CC[C@@H]1[C@@H]([C@]3(C)CC[C@@H](C(C)(C)O)O3)CC[C@]12C`, the half-inhibitory concentration (IC50) was above 50 µM in experiment [1], above 100 µM in experiment [2], above 50 µM in experiment [3] and above 50 µM in experiment [4].

Turning to `CCOC(=O)CC[C@@]1(C)[C@H]([C@](C)(O)CO)CC[C@]2(C)[C@@H]1CC[C@@H]1[C@@H]([C@]3(C)CC[C@@H](C(C)(C)O)O3)CC[C@]12C`, the IC50 was above 50 µM in experiment [1], above 100 µM in experiment [2], above 50 µM in experiment [3] and above 50 µM in experiment [4].

Regarding `CCOC(=O)CC[C@@]1(C)[C@H]([C@](C)(O)CO)CC[C@]2(C)[C@@H]1CC[C@@H]1[C@@H]([C@]3(C)CC[C@H](C(C)(C)O)O3)CC[C@]12C`, the half-inhibitory concentration (IC50) is above 50 µM in experiment [1], above 100 µM in experiment [2], above 50 µM in experiment [3] and above 50 µM in experiment [4].

Consider `CC(C)(O)[C@H]1CC[C@@](C)([C@H]2CC[C@]3(C)[C@@H]2CC[C@@H]2[C@@]4(C)CC[C@@H](O)C(C)(C)[C@@H]4CC[C@]23C)O1`, for which the IC50 was above 50 µM in experiment [1], above 100 µM in experiment [2], above 50 µM in experiment [3] and above 50 µM in experiment [4].

On to `CC1(C)[C@H](O)CC[C@]2(C)[C@H]3CC[C@@H]4[C@@H]([C@]5(C)CCC(=O)O5)CC[C@@]4(C)[C@]3(C)CC[C@@H]12` [CABRALEAHYDROXYLACTONE], for which the 50% inhibitory concentration (IC50) in experiment [1] is above 50 µM; in experiment [2] it was above 100 µM; in experiment [3], above 50 µM; in experiment [4], above 50 µM.

With `CC1(C)C(=O)CC[C@]2(C)[C@H]3CC[C@@H]4[C@@H]([C@]5(C)CCC(=O)O5)CC[C@@]4(C)[C@]3(C)CC[C@@H]12` [CABRALELACTONE], the IC50 in experiment [1] was above 50 µM; in experiment [2], above 100 µM; in experiment [3] it was above 50 µM; in experiment [4], above 50 µM.

With `C=C(C)[C@@H]1CC[C@]2(C)[C@H](CC[C@@H]3[C@@H]([C@]4(C)CC[C@H](C(C)(C)O)O4)CC[C@]32C)[C@@]1(C)CCC(=O)OC` [METHYL SHOREATE], the IC50 in experiment [1] is 6.3 µM; in experiment [2], above 100 µM; in experiment [3], 12.9 µM; in experiment [4], 5.6 µM.
